Laboratory results reported in patent US20160115540A1, “PRODRUGS AND DRUGS” (Biogen MA Inc., priority 2013, published 2016).
Where a name gives a salt, the structure may show the parent alone.

Tests used:
[1] = system: spinal cord; test: Transcriptional profiling, multi-dosing regimen, naïve mice: spinal cord; format: in vivo; settings: for FC, Depp (1433836_PM_a_at) / FC, Depp (1433837_PM_at): SpinalCord, multi-dosing; for Number of differentially expressed genes identified: Spinal Cord: Table 13: Naïve, Single Dose (so in the source), 12 h after last dosing
Procedure: In vivo, DMF is rapidly metabolized to monomethyl fumarate (MMF). […] Animals were exposed to CO2 and whole blood collected via cardiac puncture. Two 100 μl aliquots of whole blood were collected in 1.5 mL microcentrifuge tubes and snap frozen in liquid nitrogen. Peripheral (liver, spleen, kidney and jejunum) and CNS brain (cerebellum, hippocampus, striatum and cortex) tissues were harvested and snap frozen in liquid nitrogen, with special care taken to collect tissues of similar size and from the same location. All samples were stored at -80° C. until RNA extraction was conducted. For RNA preparation, frozen tissues were placed in 2 mL RNAse-free 96-well blocks with 1.5 mL QIAzol Lysis Reagent (QIAgen) and a 3.2 mm stainless steel bead (BioSpec Products, Bartlesville, Okla.). Tissues were disrupted for four cycles of 45 seconds in a Mini-Beadbeater (Biospec Products). RNA was extracted in chloroform and the aqueous phase was mixed with an equal volume of 70% ethanol. Extracted RNA was applied to RNeasy 96 plates and purified by the spin method according to the manufacturer's protocol (RNeasy 96 Universal Tissue Protocol, QIAgen, Hilden Germany). […] Two micrograms of biotin labeled […] probe were hybridized to Affymetrix GeneChip Affymetrix HT_MG-430_PM plate arrays with modified conditions as described in […] et al. Washing and staining of the hybridized arrays were completed as described in the GeneChip Expression analysis technical manual for HT plate arrays using the Genechip® Array Station (Affymetrix, Santa Clara, Calif.) with modifications as described in […] et al. The processed GeneChip® plate arrays were scanned using GeneTitan scanner (Affymetrix, Santa Clara, Calif.). Affymetrix scans were subject to quality control (QC) measures. These tests included a visual inspection of the distribution of raw signal intensities and an assessment of RNA degradation, relative log expression (RLE), and normalized unsealed standard error (NUSE). All sample scans that passed these QC metrics were included in the analysis. All CEL files were subjected to GC-content-based Robust Multi-array Average (GCRMA) normalization (version 2.20.0) (Irizarry R A, et al. Nucleic Acids Res 2003; 31:e15; Li C, et al. […] Stat Appl Genet Mol Biol 2004; 3:Article3). […] Springer Science+Business Media 2005). Changes in gene expression were studied by applying a linear modeling approach to fit gene expression levels according to the defined groups of samples (e.g. DMF-, MMF-, and Vehicle-treated animals) and Bayesian posterior error analysis as implemented by Smyth (Smyth G K. Stat Appl Genet Mol Biol 2004; 3:Article3). The comparisons considered included: DMF-vs-MMF, DMF-vs-Vehicle, and MMF-vs-Vehicle. […] Very few DEGs are observed in blood and tissues derived from the central nervous system (brain, cerebellum, cortex, striatum, and spinal cord).

[2] = system: hippocampus; test: Transcriptional profiling on Affymetrix GeneChips, single dose, naïve mice: hippocampus; format: in vivo, C57BL/6 mice; settings: for Tmtc3 (1458305_PM_at) differential expression: 7 hr; for Number of differentially expressed genes identified: Hippocampus: Naïve, Single Dose
Procedure: Treated mice were sacrificed at 2, 7, or 12 hours. Tissues (liver, spleen, kidney, jejunum, cortex, hippocampus, striatum and whole blood) were collected and analyzed by transcriptional profiling on mouse Affymetrix GeneChips.
Tissues (liver, spleen, kidney, jejunum, cortex, hippocampus, striatum and whole blood) were collected and analyzed by transcriptional profiling on mouse Affymetrix GeneChips.
Animals were exposed to CO2 and whole blood collected via cardiac puncture. Two 100 μl aliquots of whole blood were collected in 1.5 mL microcentrifuge tubes and snap frozen in liquid nitrogen. Peripheral (liver, spleen, kidney and jejunum) and CNS brain (cerebellum, hippocampus, striatum and cortex) tissues were harvested and snap frozen in liquid nitrogen, with special care taken to collect tissues of similar size and from the same location. All samples were stored at −80° C. until RNA extraction was conducted.
For RNA preparation, frozen tissues were placed in 2 mL RNAse-free 96-well blocks with 1.5 mL QIAzol Lysis Reagent (QIAgen) and a 3.2 mm stainless steel bead (BioSpec Products, Bartlesville, Okla.). Tissues were disrupted for four cycles of 45 seconds in a Mini-Beadbeater (Biospec Products). RNA was extracted in chloroform and the aqueous phase was mixed with an equal volume of 70% ethanol. Extracted RNA was applied to RNeasy 96 plates and purified by the spin method according to the manufacturer's protocol (RNeasy 96 Universal Tissue Protocol, QIAgen, Hilden Germany).
Automated sample amplifications and biotin labelings were carried out using the NuGEN Ovation RNA Amplification system V2 (Cat #3100), Ovation WB reagent (Cat #1300) and Encore Biotin module (Cat #4200) (NuGEN Technologies, Inc, San Carlos, Calif.) according to manufacturer's recommendations using an Arrayplex automated liquid handler (Beckman Coulter, Indianapolis, Ind.). Two micrograms of biotin labeled sscDNA probe were hybridized to Affymetrix GeneChip Affymetrix HT_MG-430_PM plate arrays with modified conditions as described in Allaire et al. Washing and staining of the hybridized arrays were completed as described in the GeneChip Expression analysis technical manual for HT plate arrays using the Genechip® Array Station (Affymetrix, Santa Clara, Calif.) with modifications as described in Allaire et al. The processed GeneChip® plate arrays were scanned using GeneTitan scanner (Affymetrix, Santa Clara, Calif.).
Affymetrix scans were subject to quality control (QC) measures. These tests included a visual inspection of the distribution of raw signal intensities and an assessment of RNA degradation, relative log expression (RLE), and normalized unsealed standard error (NUSE). All sample scans that passed these QC metrics were included in the analysis.
All CEL files were subjected to GC-content-based Robust Multi-array Average (GCRMA) normalization (version 2.20.0) (Irizarry R A, et al. Nucleic Acids Res 2003; 31:e15; Li C, et al. Genome Biol 2001; 2:[…]0032). Expression levels were log (base 2) transformed.
All calculations and analyses were carried out using R (version 2.11.1) and Bioconductor computational tools (Gentleman R. Springer Science+Business Media 2005).

[3] = SPINAL CORD, 100DMF-vs-100MMF, naïve multidose
[4] = 100 mpk, vs Vehicle, 2 h after last dosing
[5] = 100 mpk, vs Vehicle, 7 h after last dosing
[6] = 100 mpk, vs Vehicle, 12 h after last dosing
[7] = hippocampus, 100DMF-vs-100MMF, 2 h
[8] = hippocampus, 100DMF-vs-Veh, 7 h
[9] = hippocampus, 100MMF-vs-Veh, 2 h
[10] = hippocampus, 100MMF-vs-Veh, 7 h
[11] = hippocampus, 2 hr after single 100 mg/kg oral dose

## COC(=O)/C=C/C(=O)OC [DMF, dimethyl fumarate]
[1]; [3]
  FC 8430408G22Rik (1433836_PM_a_at): 1.92
  FC 8430408G22Rik (1433837_PM_at): 1.65
  FC Mtmr2 (1425459_PM_at): 1.57
  FC Tle4 (1430384_PM_at): −1.55
[1]; SPINAL CORD, 100DMF-vs-Veh, naïve multidose
  FC 8430408G22Rik (1433837_PM_at): 1.73
[1]; DMF-vs-MMF
  FC, Depp (1433836_PM_a_at): 1.92
  FC, Depp (1433837_PM_at): 1.65
[1]; DMF-vs-Vehicle
  FC, Depp (1433836_PM_a_at): 1.66
  FC, Depp (1433837_PM_at): 1.73
[1]; 100 mpk DMF-vs-90 mpk MMF
  Number of differentially expressed genes identified: Spinal Cord: 4
[1]; 100 mpk DMF-vs-Vehicle
  Number of differentially expressed genes identified: Spinal Cord: 1
[1]; spinal cord, multi-dosing regimen, naïve mice
  DEPP gene induction (mRNA): robustly induced
[2]; Hippocampus
  Number of genes, DMF Only / MMF Only: 0
  Tmtc3 (1458305_PM_at) differential expression: −2.38
[2]; 100 mpk DMF-vs-100 mpk MMF, 2 h after last dosing
  Number of differentially expressed genes identified: Hippocampus: 2
[2]; 100 mpk DMF-vs-100 mpk MMF, 7 h after last dosing
  Number of differentially expressed genes identified: Hippocampus: 0
[2]; 100 mpk DMF-vs-100 mpk MMF, 12 h after last dosing
  Number of differentially expressed genes identified: Hippocampus: 0
[2]; [4]
  Number of differentially expressed genes identified: Hippocampus: 0
[2]; [5]
  Number of differentially expressed genes identified: Hippocampus: 2
[2]; [6]
  Number of differentially expressed genes identified: Hippocampus: 0
[2]; [7]
  FC Dio2 (1418938_PM_at): 1.58
  FC Tmtc3 (1458305_PM_at): −1.88
[2]; hippocampus, 100DMF-vs-100MMF, 7 h
  differentially expressed genes: None
[2]; hippocampus, 100DMF-vs-100MMF, 12 h
  differentially expressed genes: None
[2]; hippocampus, 100DMF-vs-Veh, 2 h
  differentially expressed genes: None
[2]; [8]
  FC Tmtc3 (1458305_PM_at): −2.38
  FC probe 1443353_PM_at: −1.84
[2]; hippocampus, 100DMF-vs-Veh, 12 h
  differentially expressed genes: None

## COC(=O)/C=C/C(=O)O [MMF, monomethyl fumarate]
[1]; MMF-vs-Vehicle
  FC, Depp (1433836_PM_a_at): −1.16
  FC, Depp (1433837_PM_at): 1.05
[1]; 90 mpk MMF-vs-Vehicle
  Number of differentially expressed genes identified: Spinal Cord: 0
[2]; Hippocampus
  Number of genes, DMF Only / MMF Only: 6
  Tmtc3 (1458305_PM_at) differential expression: −2.40
[2]; Hippocampus, 2 hr
  Dnajc18 (1425077_PM_at) differential expression: −1.58
  Heatr5b (1438085_PM_at) differential expression: −1.56
  Kcnq3 (1458421_PM_at) differential expression: −1.50
  Kpna4 (1417975_PM_at) differential expression: −1.51
  Nfat5 (1426029_PM_a_at) differential expression: −1.51
  Srgap2 (1434407_PM_at) differential expression: −1.50
[2]; [4]
  Number of differentially expressed genes identified: Hippocampus: 3
[2]; [5]
  Number of differentially expressed genes identified: Hippocampus: 2
[2]; [6]
  Number of differentially expressed genes identified: Hippocampus: 1
[2]; [9]
  FC Heatr5b (1438085_PM_at): −1.56
  FC Kpna4 (1417975_PM_at): −1.51
  FC Srgap2 (1434407_PM_at): −1.50
[2]; [10]
  FC Tmtc3 (1458305_PM_at): −2.40
  FC probe 1443353_PM_at: −1.74
[2]; hippocampus, 100MMF-vs-Veh, 12 h
  FC LOC100502895 (1435119_PM_at): 1.66
[2]; [11]
  Dnajc18 mRNA fold change vs vehicle: −1.58
  Heatr5b mRNA fold change vs vehicle: −1.56
  Kcnq3 mRNA fold change vs vehicle: −1.50
  Kpna4 mRNA fold change vs vehicle: −1.51
  Nfat5 mRNA fold change vs vehicle: −1.51
  Srgap2 mRNA fold change vs vehicle: −1.50
[2]; hippocampus, 7 hr after single 100 mg/kg oral dose
  Tmtc3 mRNA fold change vs vehicle: −2.40
